Measured values taken from patent US4946951A, “2'-deoxy-5-fluorouridine derivatives” (Taiho Pharmaceutical Co., Ltd., priority 1987, dated 1990).
Blank lines part the entries; values can stand above or below the compound they belong to.

What was measured:
Sarcoma-180 [1] = assay: antitumor activity against subcutaneous Sarcoma-180 in mice, tail vein administration (Pharmacological Test II); format: in vivo, ICR mice; details: Mus musculus, Sarcoma-180, iv, 240 h, once a day for 7 consecutive days, tumor weight on 10th day, read-out: ED50 (50% tumor inhibition dose, T/C = 0.5)
Method: Sarcoma-180 subcultured in ascites of ICR mice was diluted with a physiological saline and subcutaneously transplanted into the backs of ICR mice in an amount of 2×10^7 cells each. Twenty-four hours after the transplantation, a test compound dissolved in sterilized physiological saline was administered to the tail vein of each of the mice once a day for 7 consecutive days. The solid tumor was isolated from under the dorsal skin of mice on the 10th day after the transplantation to measure the weight of the tumor. There was determined the ratio (T/C) of the weight of tumor (T) of the test compound group to the weight of tumor (C) of the control group. The 50% tumor inhibition dose (ED50 value) in which T/C is 0.5 was determined from the dose response curve of dosage and the ratio (T/C).

Sarcoma-180 [2] = assay: antitumor activity against subcutaneous Sarcoma-180 in mice, oral administration (Pharmacological Test I); format: in vivo, male mice of ICR/JCL strain; details: for ED50: Mus musculus, Sarcoma-180, 240 h, once a day for 7 consecutive days, tumor weight on 10th day, read-out: ED50 (effective dose for achieving 50% cancer inhibition)
Method: (§1) Tissues of Sarcoma-180 were subcutaneously transplanted into the back of male mice of ICR/JCL strain (weighing 27 to 30 g) in an amount of 5×10^6 cells each. The test compound was administered in the form of a weakly acidic aqueous solution. The solution was orally given to each mouse (7 mice in each group) in a dose of 1.0 ml/100 g body weight once a day for 7 consecutive days starting 24 hours after the transplantation, and a weakly acidic aqueous solution containing no test compound was orally administered to the control group in an amount of 1.0 ml/100 g body weight once a day for 7 consecutive days starting 24 hours after the transplantation.
(§2) The tumor was removed from the body on the 10the day after the transplantation and weighed to calculate the average weight of the tumors in the group to which the test compound-containing solution was given and the corresponding weight in the control group. The effective dose (ED50) for achieving 50% cancer inhibition was determined from the dose-response curve. The dose of 50% inhibition of body weight gain (IB50) was determined from the dose-body weight change curve. The therapeutic index (T.I. =IB50/ ED50) was determined with the results shown below in Table 6.

[3] = inhibition of body weight gain in Sarcoma-180 bearing mice, oral administration (Pharmacological Test I); format: in vivo, male mice of ICR/JCL strain; details: once a day for 7 consecutive days
Method: as §1, §2

[4] = compared with O^3' -p-chlorobenzyl-2'-deoxy-5-fluorouridine

SMILES: NCC(=O)OC[C@H]1O[C@@H](n2cc(F)c(=O)[nH]c2=O)C[C@@H]1OCc1ccc(Cl)cc1 [Compound 28]
ED50 (Sarcoma-180 [1]): 1 mg/kg

SMILES: NCC(=O)OC[C@H]1O[C@@H](n2cc(F)c(=O)[nH]c2=O)C[C@@H]1OCc1ccc(Cl)cc1Cl [Compound 19]
ED50 (Sarcoma-180 [1]): 0.8 mg/kg

SMILES: CC(C)[C@H](N)C(=O)OC[C@H]1O[C@@H](n2cc(F)c(=O)[nH]c2=O)C[C@@H]1OCc1ccc(Cl)cc1 [Compound 13]
ED50 (Sarcoma-180 [1]): 1.5 mg/kg

SMILES: C[C@H](N)C(=O)OC[C@H]1O[C@@H](n2cc(F)c(=O)[nH]c2=O)C[C@@H]1OCc1ccc(Cl)cc1 [Compound 22]
ED50 (Sarcoma-180 [1]): 1 mg/kg

IB50 (dose of 50% inhibition of body weight gain) [3]: 3.60 mg/kg/day
SMILES: NCC(=O)OC[C@H]1O[C@@H](n2cc(F)c(=O)[nH]c2=O)C[C@@H]1OCc1ccc(Cl)cc1 [Compound 12]
T.I. (therapeutic index = IB50/ED50) (Sarcoma-180 [2]): 4.80
ED50 (Sarcoma-180 [2]): 0.75 mg/kg
anti-cancer effect in words (Sarcoma-180 [2]; [4]): superior in anti-cancer effect
efficacy in words (Sarcoma-180 [2]; [4]): higher in efficacy
therapeutic index in words (Sarcoma-180 [2]; [4]): greater in therapeutic index

SMILES: Cl.NCC(=O)OC[C@H]1O[C@@H](n2cc(F)c(=O)[nH]c2=O)C[C@@H]1OCc1ccc(Cl)cc1 [Example 8 (E), 3'-O-(4-chlorobenzyl)-2'-deoxy-5-fluoro-5'-O-glycyluridine hydrochloride]
ED50 (Sarcoma-180 [1]): 1 mg/kg

IB50 (dose of 50% inhibition of body weight gain) [3]: 1.54 mg/kg/day
SMILES: O=c1[nH]c(=O)n([C@H]2C[C@H](OCc3ccc(Cl)cc3)[C@@H](CO)O2)cc1F [O^3' -p-chlorobenzyl-2'-deoxy-5-fluorouridine, reference compound]
T.I. (therapeutic index = IB50/ED50) (Sarcoma-180 [2]): 1.64
ED50 (Sarcoma-180 [2]): 0.94 mg/kg

SMILES: CC(C)C[C@H](N)C(=O)OC[C@H]1O[C@@H](n2cc(F)c(=O)[nH]c2=O)C[C@@H]1OCc1ccc(Cl)cc1 [Compound 14]
ED50 (Sarcoma-180 [1]): 1.5 mg/kg
